From paper PMC9100920, “Crosstalk between β2- and α2-Adrenergic Receptors in the Regulation of B16F10 Melanoma Cell Proliferation” (International Journal of Molecular Sciences, 2022)
pEC50: −log10 of the molar value. Where two headings read alike, the source gives them in different places.

Biological target: T1, β2-AR (Mus musculus, UniProt P18762)
T1 construct: gene Adrb2
Assay: GloSensor cAMP concentration-response in B16F10 cells (endogenous receptor), agonist
Format: cell-based

T1 sequence (P18762 whole entry): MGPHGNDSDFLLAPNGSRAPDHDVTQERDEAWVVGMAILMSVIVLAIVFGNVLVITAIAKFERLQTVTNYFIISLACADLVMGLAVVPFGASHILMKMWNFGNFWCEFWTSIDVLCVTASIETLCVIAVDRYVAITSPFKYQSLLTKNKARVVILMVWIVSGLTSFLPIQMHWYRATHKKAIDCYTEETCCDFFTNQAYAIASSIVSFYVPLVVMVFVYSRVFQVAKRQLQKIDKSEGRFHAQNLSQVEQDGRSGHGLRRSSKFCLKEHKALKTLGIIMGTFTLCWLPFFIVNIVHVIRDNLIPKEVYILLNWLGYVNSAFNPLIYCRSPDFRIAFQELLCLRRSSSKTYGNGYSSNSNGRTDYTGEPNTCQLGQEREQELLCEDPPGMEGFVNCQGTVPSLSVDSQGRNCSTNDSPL

| SMILES | pEC50 | pEC50 (read-out: EC50) |
| --- | --- | --- |
| CNC[C@H](O)c1ccc(O)c(O)c1 [EPI, epinephrine] | 7.35 |  |
| NC[C@H](O)c1ccc(O)c(O)c1 [NE, norepinephrine] |  | 6.55 |
